Laboratory results taken from PubChem BioAssay (NCI).
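Assay format: 96-well plates, 48-hour exposure. TGI: concentration producing complete growth inhibition.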

Experiments:
Assay in all cases: NCI tumour cell line growth inhibition, 48 h
[1] = tested on: M19-MEL melanoma
[2] = tested on: LXFL 529 NSCLC
[3] = tested on: RXF-631 renal
[4] = tested on: DLD-1 colon
[5] = tested on: SNB-78 CNS
[6] = tested on: HOP-18 NSCLC
[7] = tested on: SN12K1 renal
[8] = tested on: P388 leukemia

`CCN(CC)CCNc1ccc2nnn3c4ccccc4c(=O)c1c23` gave a TGI [1] of 17.2 µM, a TGI [2] of 21.8 µM and a TGI [3] of 13.7 µM. It also gave a TGI [4] of 42.2 µM.

Work on `[O-][n+]1c(-c2ccccc2)c2nc3ccccc3nc2c2ccccc21` yielded a TGI [1] greater than 100 µM, a TGI [5] of 92.4 µM and a TGI [2] of 93.9 µM. The TGI [3] was greater than 100 µM and the TGI [4] was greater than 100 µM.

Compound `O=C(O)c1nccnc1C(=O)O` has a TGI [1] greater than 100 µM, a TGI [2] greater than 100 µM and a TGI [3] greater than 100 µM. The TGI [4] was greater than 100 µM.

`COc1cc2c(c(OC(C)=O)c1OC(C)=O)-c1ccc(SC)c(=O)cc1C(NC(C)=O)CC2` (centres undefined) was tested, and the TGI [1] was greater than 73.5 µM, the TGI [5] was greater than 100 µM and the TGI [2] was greater than 82.3 µM. The TGI [6] was greater than 100 µM and the TGI [4] was greater than 100 µM.

In the case of `C=CCc1cccc(/C=N\N=C(/N)NO)c1O`, the TGI [7] is reported as 11.6 µM, the TGI [5] is reported as greater than 88.1 µM and the TGI [6] is reported as greater than 100 µM. The TGI [4] was greater than 100 µM and the TGI [8] was 3.19 µM.

`CC(=O)N/C(=C\c1ccc(/C=C(\NC(C)=O)C2=NC3C(=O)c4ccccc4C(=O)C3N2)cc1)C1=NC2C(=O)c3ccccc3C(=O)C2N1` (centres undefined) showed a TGI [1] greater than 100 µM, a TGI [5] greater than 100 µM and a TGI [2] greater than 100 µM. The TGI [3] was greater than 100 µM, the TGI [6] was greater than 100 µM and the TGI [4] was greater than 100 µM.
